Measured values from US11078181B2, “Diaryl pyrazole compound and formulation for controlling harmful organisms” (Nippon Soda Co., Ltd., priority 2016, dated 2021).

Key:
Format in all cases: in vivo
Aphis craccivora = experiment: Efficacy test against Aphis craccivora (black-eyed pea spray); settings: in Vigna unguiculata, 96 h, sprayed on black-eyed pea plants, nymphs, 4 days after spraying, read-out: insect mortality rate
Protocol: (§1) 5 parts of the compound of the present invention, 93.6 parts of dimethylformamide and 1.4 parts of polyoxyethylene alkyl aryl ether were mixed and dissolved to prepare Emulsion (I) including 5% of an active ingredient.
(§2) An insect mortality rate and a controlling rate were calculated by the numerical equations shown below. Insect mortality rate(%)={(Number of dead insects)/(Number of sample insects)}×100 Controlling rate={1−(Nt)/(Nc)}×100 • wherein • Nt: number of parasites in spray-treated area; and • Nc: number of parasites in non-treated area
Black-eyed pea plants were raised in No. 3 pots and the primary leaves were inoculated with nymphs of Aphis craccivora. Emulsion (I) was diluted with water so that the concentration of the compound of the present invention was 125 ppm. Subsequently, the aforementioned diluted liquid was sprayed on the black-eyed pea plants on which the nymphs of Aphis craccivora were parasitic. The aforementioned black-eyed pea plants were then placed in a thermostatic chamber with a temperature of 25° C. and humidity of 60%. Mortality was investigated 4 days after spraying was carried out, and the insect mortality rate of Aphis craccivora was calculated. The test was performed twice.

[1] = tested on: first-instar larvae of Culex pipiens molestus; experiment: Efficacy test against Culex pipiens molestus (larvae in chemical liquid); settings: 24 h, first-instar larvae in 100 mL chemical liquid, after one day, read-out: insect mortality rate
Protocol: as §1, §2
Emulsion (I) was diluted with water so that the concentration of the compound of the present invention was 10 ppm, to prepare a chemical liquid for testing. 20 first-instar larvae of Culex pipiens molestus were released in 100 mL of the chemical liquid. After one day, the number of dead insects was counted, and the insect mortality rate was calculated. The test was performed twice.

Nilaparvata lugens = experiment: Efficacy test against Nilaparvata lugens (rice seedling dip); settings: 168 h, rice seedlings soaked, second-instar larvae, 7 days after inoculation, read-out: insect mortality rate
Protocol: as §1, §2
Emulsion (I) was diluted with water so that the concentration of the compound of the present invention was 125 ppm. Rice seedlings were soaked in the diluted liquid for 30 seconds, and subjected to air-drying. Subsequently, the rice seedlings were placed in plastic cases, followed by inoculating 5 second-instar larvae of Nilaparvata lugens. The plastic cases were placed in a thermostatic chamber at a temperature of 25° C. and humidity of 65%. Mortality was investigated 7 days after inoculation, and the insect mortality rate was calculated. The test was performed twice.

Aphis gossypii = experiment: Efficacy test against Aphis gossypii (cucumber seedling spray); settings: 96 h, sprayed on cucumber seedlings, nymphs, 4 days after spraying, read-out: insect mortality rate
Protocol: as §1, §2
Emulsion (I) was diluted with water so that the concentration of the compound of the present invention was 125 ppm. Cucumbers were raised in No. 3 pots and the first leaves were inoculated with nymphs of Aphis gossypii. The diluted emulsion mentioned above was sprayed onto the cucumber seedlings. The aforementioned cucumber seedlings were then placed in a thermostatic chamber with a temperature of 25° C. and humidity of 60%. Mortality was investigated 4 days after spraying was carried out, and the insect mortality rate of Aphis gossypii was calculated. The test was performed twice.

[2] = tested on: adult Phyllotreta striolata; experiment: Efficacy test against Phyllotreta striolata (bok-choi seedling spray); settings: 168 h, sprayed on bok-choi seedlings, adults, 7 days after inoculation, read-out: insect mortality rate
Protocol: as §1, §2
Emulsion (I) was diluted with water so that the concentration of the compound of the present invention was 125 ppm, to prepare a diluted liquid for testing. The aforementioned diluted liquid was sprayed on bok-choi seedlings (7th major leaf-development period) planted in No. 3 pots. After the bok-choi seedlings were subjected to air-drying, the seedlings were placed in plastic cups, followed by inoculating 10 adult Phyllotreta striolata. […] Mortality was investigated 7 days after inoculation, and the insect mortality rate was calculated. […]
Emulsion (I) was diluted with water so that the concentration of the compound of the present invention was 8 ppm, to prepare a diluted liquid for testing. […] Mortality was investigated 7 days after inoculation, and the insect mortality rate was calculated. […]

Plutella xylostella = experiment: Efficacy test against Plutella xylostella (cabbage leaf dip); settings: foliar, 72 h, cabbage leaves soaked, second-instar larvae, 3 days after inoculation, read-out: insect mortality rate
Protocol: as §1, §2
Emulsion (I) was diluted with water so that the concentration of the compound of the present invention was 125 ppm. Cabbage leaves were soaked in the diluted liquid for 30 seconds. Subsequently, the cabbage leaves were put on Petri dishes, followed by inoculating 5 second-instar larvae of Plutella xylostella. The Petri dishes were placed in a thermostatic chamber at a temperature of 25° C. and humidity of 60%. Mortality was investigated 3 days after inoculation, and the insect mortality rate was calculated. The test was performed twice.

## CCS(=O)(=O)c1ccc(-n2cncn2)nc1-n1ncc(-c2ccc(OC(F)(F)F)cc2)c1C [1-1, 3-(ethylsulfonyl)-2-(5-methyl-4-(4-(trifluoromethoxy)phenyl)-1H-pyrazol-1-yl)-6-(1H-1,2,4-triazol-1-yl)pyridine]
Aphis craccivora
  mortality at 125 ppm: ≥ 80%
[1]
  mortality at 10 ppm: 100%
Nilaparvata lugens
  mortality at 125 ppm: ≥ 80%
Aphis gossypii
  mortality at 125 ppm: ≥ 80%
[2]; 8 ppm
  mortality at 8 ppm: ≥ 80%
[2]; 125 ppm
  mortality at 125 ppm: ≥ 80%
Plutella xylostella
  mortality at 125 ppm: ≥ 80%
